The source of these data is patent publication EP1449521A1, “Use of PVP-iodine liposomes for treatment of atopic dermatitis” (EURO-CELTIQUE S.A., priority 2003, dated 2004).

In this series the test system is Human ciliated epithelium cells.

Method: A cytotoxic damage of these cells which would cause a restriction of the mucociliar clearance can be determined by a detectable decrease of the ciliary vibration.
Human ciliated epithelium cells were analysed by an in-vitro method which enables the determination of the ciliary activity or ciliary vibration. The corresponding cells were exposed and incubated with 100 je.1 test substance at a temperature of 37 C. After an incubation period of 5 minutes the ciliary vibration was measured.
By using this in-vitro method a nutriant solution (Dulbeco) as standard, a 0.2% chlorohexidine solution (typical antiseptic agent), conventional polyvidone iodine solutions (Betaisodona) of different concentrations (5.0%, 2.5% and 1.25% PVP-iodine) and a liposomal solution containing 4.5% of PVP-iodine were tested.

For the molecule `[H]/N=C(\N/C(=N/[H])NCCCCCCNC(=N)NC(=N)Nc1ccc(Cl)cc1)Nc1ccc(Cl)cc1` [chlorohexidine], the ciliary vibration result is “decrease of the measured ciliary vibration in comparison to the standard”.
